Data set [1] deals with Staphylococcus aureus. The data set can be described thus: Drug resistance, ratio of MIC for Staphylococcus aureus measured after 7 days to MIC for Staphylococcus aureus. The format is functional.
Data set [2] relates to Staphylococcus aureus. The data set can be described thus: Resistance development in 20 day passaged Staphylococcus aureus assessed as ciprofloxacin antibacterial activity. In kind it is functional, organism-based.
Data set [3] has as its system Staphylococcus aureus. The data set can be described thus: Resistance development in 20 day passaged Staphylococcus aureus assessed as cefotaxime antibacterial activity. The format is functional, organism-based.
Data set [4] has as its system Staphylococcus aureus. The data set can be described thus: Resistance development in 20 day passaged Staphylococcus aureus assessed as beta-lactam antibacterial activity. The format is functional, organism-based.
Data set [5] deals with Staphylococcus aureus. Nature of the data set: Antibacterial activity against Staphylococcus aureus measured after 20 days. The format is functional. The conditions noted are these: 480 h, time 20 day.
Data set [6] concerns Staphylococcus aureus. The data set can be described thus: Resistance development in 20 day passaged Staphylococcus aureus assessed as levofloxacin antibacterial activity. The format is functional, organism-based.
In data set [7] the test system is Staphylococcus aureus. The data set can be described thus: Resistance development in 20 day passaged Staphylococcus aureus assessed as ampicillin antibacterial activity. The format is functional, organism-based.
Data set [8] relates to Staphylococcus aureus. The data set can be described thus: Drug resistance, ratio of MIC for Staphylococcus aureus measured after 20 days to MIC for Staphylococcus aureus. The format is functional.
Data set [9] in a line: Cytotoxicity against rat HBZY-1 cells assessed as viable cells at 128 microg/ml incubated for 48 hrs by CCK-8 assay relative to control. The format is toxicity, cell-based. The conditions noted are these: at 128 µg/mL, read-out: Activity. On the technique in general: Formazan colour is commonly taken as a measure of viable cells.
Data set [10] has as its system Staphylococcus aureus. Nature of the data set: Antibacterial activity against methicillin resistant Staphylococcus aureus clinical isolates. In kind it is functional.
The test system of data set [11] is Staphylococcus aureus. The data set can be described thus: Antibacterial activity against Staphylococcus aureus in presence of 50% serum. The format is functional.
Data set [12] deals with Staphylococcus aureus. Nature of the data set: Antibacterial activity against methicillin resistant Staphylococcus aureus clinical isolates assessed as 50% inhibition of bacterial growth. In kind it is functional.
The subject of data set [13] is Staphylococcus aureus. Nature of the data set: Antibacterial activity against Staphylococcus aureus measured after 3 to 6 hrs in presence of 50% plasma. The format is functional, organism-based. The conditions noted are these: time 3-6 hrs.
For data set [14], the system named is Staphylococcus aureus. The data set can be described thus: Drug resistance, ratio of MIC for Staphylococcus aureus measured within 20 days to MIC for Staphylococcus aureus. In kind it is functional.
Data set [15] can be described thus: Cytotoxicity against HUVEC assessed as viable cells at 128 microg/ml incubated for 48 hrs by CCK-8 assay relative to control. The format is toxicity, cell-based. The conditions noted are these: human, at 128 µg/mL, read-out: Activity.
Data set [16] relates to Escherichia coli. The data set can be described thus: Antibacterial activity against Escherichia coli ATCC 25922 by CLSI protocol based assay. In kind it is functional.
Data set [17] deals with Cell membrane. Nature of the data set: Induction of cell membrane damage in Staphylococcus aureus assessed as protein leakage at 8 to 32 microg/ml. The format is cell membranes. The conditions noted are these: dose 8-32 µg/ml.
Data set [18] has as its system Escherichia coli. The data set can be described thus: Induction of morphological changes in Escherichia coli assessed as cell elongation at 8 times of MIC incubated for 6 hrs by scanning electron microscopic analysis. The format is functional, organism-based.
Data set [19] in a line: Hemolytic activity in sheep RBC. In kind it is toxicity, cell-based, Ovis aries, Erythrocyte. The note with it: sheep red blood cells (erythrocytes).
Data set [20] deals with Staphylococcus aureus. The data set can be described thus: Antibacterial activity against Staphylococcus aureus in presence of 50% plasma. The format is functional.
Data set [21] deals with Stenotrophomonas maltophilia. The data set can be described thus: Antibacterial activity against Stenotrophomonas maltophilia ATCC 17808 by CLSI protocol based assay. The format is functional.
Data set [22] deals with Cell membrane. Nature of the data set: Induction of inner membrane permeabilization in Staphylococcus aureus assessed as increase in fluorescence intensity at 16 microg/ml by PI staining based analysis. The format is cell membranes. The conditions noted are these: dose 16.0 µg/ml.
The next data set deals with Enterococcus faecalis. Nature of the data set: Antibacterial activity against Enterococcus faecalis ATCC 29212 by CLSI protocol based assay. The format is functional.
The subject of data set [23] is Staphylococcus aureus. Nature of the data set: Antibacterial activity against Staphylococcus aureus assessed as reduction in metabolic activity at sub-MIC. The format is functional, organism-based.
The subject of data set [24] is Staphylococcus aureus. The data set can be described thus: Post-antibiotic effect against Staphylococcus aureus at 1 times of MIC incubated for 1 hrs. In kind it is functional.
Data set [25] is described as follows: Cytotoxicity against HUVEC assessed as reduction in cell viability by CCK-8 assay. In kind it is toxicity, cell-based. The conditions noted are these: human, HUVEC cells.
Data set [26] is described as follows: Cytotoxicity against rat HBZY-1 cells assessed as reduction in cell viability by CCK-8 assay. The format is toxicity, cell-based.
Data set [27] deals with Staphylococcus aureus. The data set can be described thus: Antibacterial activity against Staphylococcus aureus assessed as inhibition of metabolic activity at MIC. In kind it is functional.
Data set [28] can be described thus: Hemolytic activity in sheep RBC assessed as hemolysis rate at 1280 microg/ml relative to control. In kind it is toxicity, cell-based, Ovis aries, Erythrocyte. The note with it: sheep red blood cells (erythrocytes), dose 1280 µg/ml, read-out: Activity.
The subject of data set [29] is Staphylococcus aureus. Nature of the data set: Post-antibiotic effect against Staphylococcus aureus at 4 times of MIC incubated for 1 hrs. In kind it is functional.
The test system of data set [30] is Staphylococcus aureus. The data set can be described thus: Antibacterial activity against Staphylococcus aureus ATCC 29213 by CLSI protocol based assay. The format is functional.
Data set [31] deals with Cell membrane. The data set can be described thus: Induction of cell membrane depolarization in Staphylococcus aureus assessed as increase in fluorescence intensity at 16 microg/ml by DiSC3(5) dye based assay. In kind it is cell membranes. The conditions noted are these: dose 16.0 µg/ml.
Data set [32] has as its system Cell membrane. Nature of the data set: Induction of cell membrane damage in Staphylococcus aureus assessed as nucleic acid leakage at 8 to 32 microg/ml by absorbance based analysis. In kind it is cell membranes. The conditions noted are these: dose 8-32 µg/ml.
Data set [33] relates to Staphylococcus aureus. Nature of the data set: Antibacterial activity against early exponential growth phase Staphylococcus aureus assessed as reduction in bacterial colony at 8 times of MIC measured at 8 to 24 hrs by time-kill kinetics assay. In kind it is functional, organism-based. The conditions noted are these: time 8-24 hrs.
Data set [34] deals with Staphylococcus aureus. Nature of the data set: Drug resistance, ratio of MIC for Staphylococcus aureus measured after 10 days to MIC for Staphylococcus aureus. The format is functional.

Values after ≈ are worked out from the molar mass of the structure shown. Active and inactive are the calls of the source.

Usually MIC stands for the smallest concentration in the dilution series that meets the test's criterion for growth inhibition. What is called MIC50 is the lowest concentration that inhibits either 50% of growth or 50% of the strains tested, depending on the study. The term HC50 denotes the concentration giving 50% haemolysis. Higher therefore signals less damage to red cells. By CC50 is commonly meant the concentration that lowers cell viability or growth by half.

For the molecule `CCn1cc(C(=O)O)c(=O)c2cc(F)c(N3CCNCC3)cc21` [NORFLOXACIN], the Ratio in the data set with Staphylococcus aureus [1] turned out to be 16; with Staphylococcus aureus [8] it was 64. The outcome with Staphylococcus aureus [2], in the data set on Staphylococcus aureus [3], with Staphylococcus aureus [4], in the data set with Staphylococcus aureus [6] and in the data set with Staphylococcus aureus [7] was inactive. Moreover, the MIC in the data set with Staphylococcus aureus [5] was 64 µg/mL (≈ 200 µM).

`CCCCCCCCNC(=O)c1ccc[n+](CC2=C(C(=O)[O-])N3C(=O)[C@@H](NC(=O)/C(=N\OC)c4csc(N)n4)[C@H]3SC2)c1.O=C(O)C(F)(F)F`: the viability at 48 h, 128 microg/ml in [9] was 92.6%; in data set [15], 100%. For the same molecule, the outcome in the data set with Staphylococcus aureus [2], with Staphylococcus aureus [3], with Staphylococcus aureus [13], in the data set on Escherichia coli [18], in the data set with Staphylococcus aureus [4] and in the data set on Staphylococcus aureus [6] was Active. Also, the outcome in the data set on Staphylococcus aureus [23] and in the data set on Staphylococcus aureus [7] was Active. Also, the MIC was determined as 2 µg/mL against Staphylococcus aureus [10]; 0.5 µg/mL in the data set with Staphylococcus aureus [11]; 8 µg/mL with Escherichia coli [16]; 1 µg/mL with Staphylococcus aureus [20]; 8 µg/mL in [21]; 4 µg/mL in the data set with Enterococcus faecalis. Besides, it took 0.5 µg/mL to inhibit growth with Staphylococcus aureus [30] (MIC). In the data set on Staphylococcus aureus [12], the MIC50 came out at 2 µg/mL. In the data set with Staphylococcus aureus [14], the Ratio was <4. The outcome with Cell membrane [17], in the data set with Cell membrane [22], in the data set on Cell membrane [31] and in the data set on Cell membrane [32] was inactive. The HC50 in [19] is > 1280 µg/mL. The PAE in the data set with Staphylococcus aureus [24] was determined as 1.58 h; with Staphylococcus aureus [29], 2.08 h. Moreover, the CC50 in [25] and in data set [26] was > 128 µg/mL throughout. The “inhibition (INH)” value in the data set on Staphylococcus aureus [27] is recorded as ~100%. For the same molecule, the hemolysis at 1280 microg/ml in data set [28] was 2.85%.

As for `CO/N=C(\C(=O)N[C@@H]1C(=O)N2C(C(=O)[O-])=C(C[n+]3ccccc3)CS[C@H]12)c1csc(N)n1.O=C(O)C(F)(F)F`, the outcome in the data set on Staphylococcus aureus [2], in the data set with Staphylococcus aureus [3], in the data set with Cell membrane [22], in the data set on Staphylococcus aureus [4], in the data set on Staphylococcus aureus [6] and in the data set with Cell membrane [31] was inactive. Also, the result with Staphylococcus aureus [7] was inactive. Besides, the MIC with Staphylococcus aureus [10] is 2 µg/mL; in the data set with Escherichia coli [16], 0.063 µg/mL; in [21] it was 0.063 µg/mL; in the data set on Enterococcus faecalis, 4 µg/mL; against Staphylococcus aureus [30] it was 1 µg/mL. Also, the MIC50 with Staphylococcus aureus [12] was found to be 2 µg/mL. Besides, the outcome with Staphylococcus aureus [13], with Escherichia coli [18], in the data set with Staphylococcus aureus [33] and in the data set on Staphylococcus aureus [23] was Active. The HC50 in [19] is > 1280 µg/mL. In addition, the results for the PAE with Staphylococcus aureus [24] and in the data set on Staphylococcus aureus [29] were 1.48 h and 2.1 h, respectively. The CC50 in [25] and in data set [26] was > 128 µg/mL in each case. For the same molecule, the “inhibition (INH)” value in the data set on Staphylococcus aureus [27] was ~100%. The Ratio in the data set with Staphylococcus aureus [8] is on record as 32; with Staphylococcus aureus [34], 8.

These data come from ChEMBL document CHEMBL5506000, “Design, synthesis and antibacterial evaluation of low toxicity amphiphilic-cephalosporin derivatives” (Eur J Med Chem, 2024).
